Laboratory results from patent US9957253B2, “Triaminopyrimidine compounds useful for preventing or treating malaria” (MMV MEDICINES FOR MALARIA VENTURE, priority 2014, dated 2018).

Experiments:
[1] = tested on: P. falciparum field isolates; assay: Ex vivo drug susceptibility (schizont maturation) of P. falciparum field isolates; type: cell-based; details: Plasmodium falciparum; Plasmodium field isolates, ex vivo; read-out: P. falciparum IC50
Description: Further, compounds of the invention (Examples 2 and 13) were also tested against field isolates of falciparum and vivax malaria, along with three control antimalarials as described in the protocol below.
Ex Vivo Activity of Examples 2 and 13 Against Drug Resistant P. falciparum and P. Vivax Field Isolates
Standard antimalarial drugs chloroquine (CQ), amodiaquine (AQ), piperaquine (PIP), mefloquine (MFQ), and artesunate (AS) and compounds of the invention were prepared as 1 mg/mL stock solutions in H2O or dimethyl sulfoxide (DMSO) according to the manufacturers' instructions. Drug plates were pre-dosed by diluting the compounds in 50% Methanol followed by lyophilisation and stored at 4° C.
Plasmodium isolates were collected from patients attending malaria clinics in Timika (Papua, Indonesia), a region endemic for multi-drug-resistant strains of P. vivax and P. falciparum. Patients with symptomatic malaria presenting to an outpatient facility were recruited into the study if singly infected with P. falciparum or P. vivax, with a parasitaemia of between 2,000 μl-1 and 80,000 μl-1, and the majority (>80%) of parasites at ring stage of development. Venous blood (5 mL) was collected by venipuncture and after removal of host white blood cells by using cellulose (Sigma-Aldrich, Australia) filtration, packed infected red blood cells (iRBCs) were used for the ex vivo drug susceptibility assay.
Drug susceptibility of P. vivax and P. falciparum isolates was measured using a protocol modified from the WHO microtest as described previously (Marfurt et al., 2011, Antimicrob Agents Chemother., 55(9):4461). Two hundred μL of a 2% haematocrit Blood Media Mixture (BMM), consisting of RPMI 1640 medium plus 10% AB+ human serum (P. falciparum) or McCoy's 5 A medium plus 20% AB+ human serum (P. vivax), was added to each well of pre-dosed drug plates containing 11 serial concentrations (2-fold dilutions) of the antimalarials (maximum concentration shown in brackets) CQ (2,992 nM), AQ (158 nM), PIP (1,029 nM), MFQ (338 nM), AS (49 nM), and a compound of the invention (2,146 nM). A candle jar was used to mature the parasites at 37.0° C. for 35-56 hours.
Thick blood films made from each well were stained with 5% Giemsa solution for 30 minutes and examined microscopically. The number of schizonts per 200 asexual stage parasites was determined for each drug concentration and normalised to the control well. The dose-response data were analysed using nonlinear regression analysis (WinNonLn 4.1, Pharsight Corporation) and the IC50 value derived using an inhibitory sigmoid Emax model. […] Drug plate quality was assured by running schizont maturation assays (two independent experiments) with the chloroquine-resistant strain K1 and the chloroquine-sensitive strain FC27.
For microscopy slide reading QC, two randomly selected drugs per isolate were read by a second microscopist. […] If necessary, discrepant results were resolved by a third reading by an expert microscopist.

[2] = Pharmacokinetic studies (IVPK/POPK) in male Beagle dogs; type: in vivo; details: Dog
Description: All in vivo studies were approved by the institutional animal ethics committee. Pharmacokinetics following IV bolus (IVPK) or oral administration (POPK) of compounds was determined in male Wistar rats or male Beagle dogs. For IVPK in rats, Example 7 and Example 10 were administered as solutions in 20% DMA, 80% phosphate-buffered saline and Example 13 was administered as a solution in 10% v/v NMP, 20% v/v DMA in saline. For POPK, Example 7 and Example 10 were administered as suspensions in 20% DMA, 80% phosphate buffered saline and Example 13 was administered as a suspension in 0.5% HPMC and 0.1% Tween 80 through an oral gavage. Example 13 was administered to dogs as a solution in 10% Ethanol, 30% PEG 400, 60% saline for IVPK and as a suspension in 0.5% HPMC, and 0.1% Tween 80 for POPK. Doses used for rat and dog PK were 0.5 mg/kg for Examples 7 and 10 or 2 mg/kg for Example 13 (IVPK). Doses of 5 mg/kg for Examples 7 and 10 were used during POPK. Doses of 10 mg/kg were used for Example 13 during POPK studies. Blood samples were collected at 8 to 13 time points (0, 0.0833, 0.25, 0.283, 0.333, 0.417, 0.75, 1.25, 3.25, 6.25, 12.25, 24.25 h for dog IVPK; 0, 0.25, 0.5, 1, 1.5, 2, 3, 4, 8, 12, 24, 32, 48 h for dog POPK; 0.083, 0.25, 0.5, 1, 2, 4, 7, 24 h for rat IVPK; 0.25, 1, 3, 6, 12, 24, 36, 48 h for rat POPK) after dosing. Blood (rat) or plasma (dog) samples were analysed by LC-MS/MS. PK parameters were estimated by non-compartmental analysis in Phoenix®.

[3] = Reactive intermediate trapping with GSH or NAC in liver microsomes; type: in vitro ADME, human, rat; details: 10 μM, 2 mM GSH or NAC
Description: Metabolites of Example 13 were identified both in vitro and in vivo using the following models: • In vitro: The compound of Example 13 was incubated with human (HLM) or rat (RLM) liver microsomes (1 mg/ml protein concentration in 100 mM phosphate buffer, pH 7.4) at a final concentration of 10 μM in the presence of 2 mM NADPH. The reactive intermediates were trapped by including 2 mM glutathione (GSH) or N-acetyl cysteine (NAC) in the reaction mix. • In vivo in bile duct cannulated rats: Example 13 was administered intravenously (IV) as a bolus through the jugular vein at a dose of 2 mg/kg or 4 mg/kg of body weight for control (n=3) or BDC rats (n=2), respectively. Blood samples were collected at 0.083, 0.25, 0.5, 1, 2, 4, 6, 8 and 24 h through the carotid artery, bile samples were collected at 0-2 h, 2-4 h, 4-6 h, 6-8 h and 8-24 h intervals and urine samples were collected at 0-8 h and 8-24 h intervals. The bile and urine samples were analyzed for the presence of parent and metabolites and blood samples were analyzed for the presence of parent.

Cc1nc(Nc2ncc(N3CCN(C)[C@H](C)C3)c(Nc3cc(C)n(C)n3)n2)cc(C2CC2)c1F [Example 13, (R)—N2-(4-cyclopropyl-5-fluoro-6-methylpyridin-2-yl)-N4-(1,5-dimethyl-1H-pyrazol-3-yl)-5-(3,4-dimethylpiperazin-1-yl)pyrimidine-2,4-diamine]
IC50 [1]: 74.6 nM | Oral ‘F’ ([2]; oral 10 mg/kg): 82% | ½ life (PO PK) ([2]; oral 10 mg/kg): 9 h | clearance ([2]; male, Beagle, blood, IV bolus 2 mg/kg, read-out: CL blood): 19 mL/min/kg | Vd ([2]; male, Beagle, blood, IV bolus 2 mg/kg, read-out: Vss blood): 16 L/kg | GSH or NAC adduct (reactive metabolite) formation [3]: no GSH or NAC adduct formation
